In patent US20160158200A1, “Combinations of Hepatitis C Virus Inhibitors” (priority 2013, published 2016):

Tested on: HCV genotype-1a variant with glutamine 30 changed to glutamate in the NS5A protein
Format: cell-based
Settings: test compound titrated with BMS-790052 fixed at 200 nM; genotype 1a Q30E replicon
Procedure, shortened: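 Synergy was assessed by combining several fixed amounts of an NS5A-targeting compound with a titration of the second compound of interest.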

Compound | Fold-Synergistic 1a (Q30E)
CCOC(C)(C)C(=O)C(=O)N[C@H](c1ncc(-c2ccc(-c3ccc(-c4cnc([C@@H](NC(=O)C(=O)C(C)(C)OCC)C(C)C)[nH]4)cc3)cc2)[nH]1)C(C)C [Compound P-117] | >100 fold
CC(C)(C(=O)N[C@H](c1nc(-c2ccc(-c3ccc(-c4c[nH]c([C@@H](NC(=O)C(C)(C)C5CCC(F)(F)CC5)C(C)(C)C)n4)cc3)cc2)c[nH]1)C(C)(C)C)C1CCC(F)(F)CC1 [Compound P-150] | >100 fold
CC(C)(C)[C@H](NC(=O)C1CCC(F)(F)CC1)c1nc(-c2ccc(-c3ccc4c(c3)CCc3nc([C@@H](NC(=O)C5CCC(F)(F)CC5)C(C)(C)C)[nH]c3-4)cc2)c[nH]1 [Compound B10] | >100 fold
CC(C)CC(=O)N(C)C(c1ncc(-c2ccc(-c3ccc(-c4cnc(C(C(C)C)N(C)C(=O)CC(C)C)[nH]4)cc3)cc2)[nH]1)C(C)C (stereo not drawn) [Compound P-54] | >100 fold
CC(C)(C)[C@H](NC(=O)C(=O)N1CCC(F)(F)CC1)c1nc(-c2ccc(-c3ccc(-c4c[nH]c([C@@H](NC(=O)C(=O)N5CCC(F)(F)CC5)C(C)(C)C)n4)cc3)cc2)c[nH]1 [Compound W-24] | >100 fold
CC(C)[C@H](NC(=O)c1ccc2ccccc2c1)c1ncc(-c2ccc(-c3ccc(-c4cnc([C@@H](NC(=O)c5ccc6ccccc6c5)C(C)C)[nH]4)cc3)cc2)[nH]1 [Compound S-10] | >100 fold
CC1(C)CCN(C(=O)C(=O)c2ccccc2)C1c1nc(-c2ccc(-c3ccc(-c4c[nH]c(C5N(C(=O)C(=O)c6ccccc6)CCC5(C)C)n4)cc3)cc2)c[nH]1 (stereo not drawn) [Compound W-224] | >10 fold
CC(C)(C)OC(=O)N1CC(C)(C)OCC1C(=O)NC(c1nc(-c2ccc(-c3ccc(-c4c[nH]c(C(NC(=O)C5COC(C)(C)CN5C(=O)OC(C)(C)C)C(C)(C)C)n4)cc3)cc2)c[nH]1)C(C)(C)C [Compound L-60] | >100 fold
CC(C)[C@H](NC(=O)c1ccccc1N(C)C)c1ncc(-c2ccc(-c3ccc(-c4cnc([C@@H](NC(=O)c5ccccc5N(C)C)C(C)C)[nH]4)cc3)cc2)[nH]1 [Compound S-91] | >100 fold
O=C(C1CC1)N1CCC[C@H]1c1ncc(-c2ccc(-c3ccc(-c4cnc([C@@H]5CCCN5C(=O)C5CC5)[nH]4)cc3)cc2)[nH]1 [Compound S-109] | <10 fold
C[C@H]1CCN(C(=O)C2CCC(F)(F)CC2)C1c1nc(-c2ccc(-c3ccc(-c4c[nH]c([C@@H]5[C@@H](C)CCN5C(=O)C5CCC(F)(F)CC5)n4)cc3)cc2)c[nH]1 (stereo partly drawn) [Compound W-188] | >10 fold
CC(C)(C)[C@H](NC(=O)C1CCC(F)(F)CC1)c1ncc(-c2ccc(-c3ccc4nc([C@@H](NC(=O)C5CCC(F)(F)CC5)C(C)(C)C)[nH]c4c3)cc2)[nH]1 [Compound B58] | >100 fold
CC1CN(C(=O)C(=O)N[C@H](c2nc(-c3ccc(-c4ccc(-c5c[nH]c([C@@H](NC(=O)C(=O)N6CC(C)OC(C)C6)C(C)(C)C)n5)cc4)cc3)c[nH]2)C(C)(C)C)CC(C)O1 (single isomer, unassigned) [Compound W-40C] | >100 fold
CC(C)(C)[C@H](NC(=O)C1CCC(F)(F)CC1)c1ncc(-c2ccc(C#Cc3ccc4nc([C@@H](NC(=O)C5CCC(F)(F)CC5)C(C)(C)C)[nH]c4c3)cc2)[nH]1 [Compound B45] | >100 fold
CC(C)[C@H](NC(=O)Cc1ncccn1)c1ncc(-c2ccc(-c3ccc(-c4cnc([C@@H](NC(=O)Cc5ncccn5)C(C)C)[nH]4)cc3)cc2)[nH]1 [Compound P-95] | >10 fold
CC(C)(C)[C@H](NC(=O)C1CCCOC1)c1nc(-c2ccc(-c3ccc(-c4c[nH]c([C@@H](NC(=O)C5CCCOC5)C(C)(C)C)n4)cc3)cc2)c[nH]1 (stereo partly drawn) [Compound W-131] | >100 fold
CCC(C)(C)C(=O)N[C@H](c1nc(-c2ccc(-c3ccc(-c4c[nH]c([C@@H](NC(=O)C(C)(C)CC)C(C)(C)C)n4)cc3)cc2)c[nH]1)C(C)(C)C [Compound P-11] | >100 fold
Cc1cccc(CC(=O)N[C@H](c2ncc(-c3ccc(-c4ccc(-c5cnc([C@@H](NC(=O)Cc6cccc(C)c6)C(C)C)[nH]5)cc4)cc3)[nH]2)C(C)C)c1 [Compound S-41] | >10 fold
CC1([C@H](NC(=O)C(=O)N2CCCCCC2)c2nc(-c3ccc(-c4ccc(-c5c[nH]c([C@@H](NC(=O)C(=O)N6CCCCCC6)C6(C)CC6)n5)cc4)cc3)c[nH]2)CC1 [Compound W-57] | >100 fold
COc1ccc(C2(C(=O)N[C@H](c3ncc(-c4ccc(-c5ccc(-c6cnc([C@@H](NC(=O)C7(c8ccc(OC)cc8)CCCC7)C(C)C)[nH]6)cc5)cc4)[nH]3)C(C)C)CCCC2)cc1 [Compound S-24] | >100 fold

Compound | Fold-Synergistic 1a (Q30E)
CC(C)(C)[C@H](NC(=O)C1(C2(O)CCC(F)(F)CC2)CC1)c1nc(-c2ccc(-c3ccc4c(c3)CCc3nc([C@@H](NC(=O)C5(C6(O)CCC(F)(F)CC6)CC5)C(C)(C)C)[nH]c3-4)cc2)c[nH]1 [Compound B13B] | >100 fold
CC(C)(C)CCC(=O)N[C@H](c1nc(-c2ccc(-c3ccc(-c4c[nH]c([C@@H](NC(=O)CCC(C)(C)C)C(C)(C)C)n4)cc3)cc2)c[nH]1)C(C)(C)C [Compound N-58] | >100 fold
COC1(C(=O)N[C@H](c2nc(-c3ccc(-c4ccc(-c5c[nH]c([C@@H](NC(=O)C6(OC)CCC6)C(C)(C)C)n5)cc4)cc3)c[nH]2)C(C)(C)C)CCC1 [Compound P-21] | >100 fold
Cc1ccccc1C(C(=O)NC(c1nc(-c2ccc(-c3ccc(-c4c[nH]c(C(NC(=O)C(c5ccccc5C)C(C)C)C(C)(C)C)n4)cc3)cc2)c[nH]1)C(C)(C)C)C(C)C (mixture of isomers) [Compound S-258] | >100 fold
COC1(C(=O)C(=O)N[C@H](c2ncc(-c3ccc(-c4ccc(-c5cnc([C@@H](NC(=O)C(=O)C6(OC)CC6)C(C)C)[nH]5)cc4)cc3)[nH]2)C(C)C)CC1 [Compound P-123] | >100 fold
O=C(c1cncnc1)N1CCC[C@H]1c1ncc(-c2ccc(-c3ccc(-c4cnc([C@@H]5CCCN5C(=O)c5cncnc5)[nH]4)cc3)cc2)[nH]1 [Compound S-195] | <10 fold
COc1cccc(C(=O)C(=O)N[C@H](c2ncc(-c3ccc(-c4ccc(-c5cnc([C@@H](NC(=O)C(=O)c6cccc(OC)c6F)C(C)C)[nH]5)cc4)cc3)[nH]2)C(C)C)c1F [Compound P-119] | >100 fold
CC(C)[C@H](NC(=O)C1(C(C)O)CC1)c1ncc(-c2ccc(-c3ccc(-c4cnc([C@@H](NC(=O)C5(C(C)O)CC5)C(C)C)n4C)cc3)cc2)n1C (single isomer, unassigned) [Compound B-204] | >10 fold
CC(C)(C)C(=O)N[C@H](c1ncc(-c2ccc(-c3ccc(-c4cnc([C@@H](NC(=O)C(C)(C)C)C(C)(C)CF)[nH]4)cc3)cc2)[nH]1)C(C)(C)CF [Compound Y-68] | >100 fold
CC(C)[C@H](NC(=O)c1cccc(Cl)c1Cl)c1ncc(-c2ccc(-c3ccc(-c4cnc([C@@H](NC(=O)c5cccc(Cl)c5Cl)C(C)C)[nH]4)cc3)cc2)[nH]1 [Compound S-66] | >100 fold
COC(C)(C)C(=O)N[C@H](c1nc(-c2ccc(-c3ccc(-c4c[nH]c([C@@H](NC(=O)C(C)(C)OC)C(C)C)n4)cn3)cc2)c[nH]1)C(C)C.O=C(O)C(F)(F)F [Compound N-102] | >100 fold
C[C@H]1CCN(C(=O)C(=O)N2C(C)(C)CCCC2(C)C)C1c1nc(-c2ccc(-c3ccc(-c4c[nH]c(C5[C@@H](C)CCN5C(=O)C(=O)N5C(C)(C)CCCC5(C)C)n4)cc3)cc2)c[nH]1 (stereo partly drawn) [Compound W-249] | >100 fold
CC(C)CC(=O)N1C[C@@H](C)C[C@H]1c1nc(-c2ccc(-c3ccc(-c4c[nH]c([C@@H]5C[C@H](C)CN5C(=O)CC(C)C)n4)cc3)cc2)c[nH]1 [Compound P-51] | <10 fold
CC(C)(C)OC(=O)N1CCCC[C@H]1C(=O)N[C@H](c1nc(-c2ccc(-c3ccc(-c4c[nH]c([C@@H](NC(=O)[C@@H]5CCCCN5C(=O)OC(C)(C)C)C(C)(C)C)n4)cc3)cc2)c[nH]1)C(C)(C)C [Compound L-17] | >100 fold
CC(C)[C@H](NC(=O)c1ccno1)c1ncc(-c2ccc(-c3ccc(-c4cnc([C@@H](NC(=O)c5ccno5)C(C)C)[nH]4)cc3)cc2)[nH]1 [Compound S-100] | >100 fold
CC(C)(C)[C@H](NC(=O)c1ccccc1OC(F)F)c1nc(-c2ccc(-c3ccc(-c4c[nH]c([C@@H](NC(=O)c5ccccc5OC(F)F)C(C)(C)C)n4)cc3)cc2)c[nH]1 [Compound P-25] | >100 fold
CC(C)(C)[C@H](NC(=O)C1CC12CCC2)c1nc(-c2ccc(-c3ccc(-c4cnc([C@@H](NC(=O)C5CC56CCC6)C(C)(C)C)[nH]4)cc3)cc2)c[nH]1 (stereo partly drawn) [Compound B-183] | >100 fold
CC(C)(C)[C@H](NC(=O)C(C)(C)N1CCOCC1)c1nc(-c2ccc(-c3ccc(-c4c[nH]c([C@@H](NC(=O)C(C)(C)N5CCOCC5)C(C)(C)C)n4)cc3)cc2)c[nH]1 [Compound Q-7] | >100 fold
CCC(C)(C)C(=O)N[C@H](c1ncc(-c2ccc(-c3ccc(-c4cnc([C@@H](NC(=O)C(C)(C)CC)C(C)C)[nH]4)cc3)cc2)[nH]1)C(C)C [Compound P-68] | >100 fold
